Results from patent US10342796B2, “Acrylanilide derivative, preparation method, and applications thereof in pharmacy” (Ancureall Pharmaceutical (Shanghai) Co., Ltd., priority 2015, dated 2019).
Like-named read-outs stand apart in the source and are kept apart here.

Key:
[1] = system: N87 (HER2 Amp); experiment: Growth inhibition GI50 in vitro (CCK8/MTT, 72 h); type: cell-based, human; details: Homo sapiens
[2] = system: HER2/ErbB2 amplified cell line N87; experiment: In vivo tumor growth inhibition, xenograft; parameters: species or system Bab/c nude mice; details: Mus musculus, po, 456 h, 25 mg/kg intragastric once daily, day 19, read-out: TGI (%)
Excerpt: Tumor xenograft models of immunodeficient mice are an effective tool to test the antitumor activity of the compound in vivo. Generally, the effectiveness of human tumor cell xenograft is positively correlated with the clinical treatment of human tumor. Bab/c immunodeficient mouse is one of the most commonly used xenograft animals with human tumor cells. In order to test whether the present compounds can inhibit the in vivo growth of the tumor cells expressing EGFR mutantion or HER2/ErbB2 overexpression, H1975, PC-9 and NCI-N87 cell lines were used in the experiments. When H1975, PC-9 and NCI-N87 cells were in growth logarithmic phase, they were digested with pancreatin. An appropriate amount of 1×RPMI1640 culture medium (serum-free) was added to stop digestion. The cells were collected to a 50 ml centrifuge tube (Corning), and centrifuged at 1700 rm for 3 min. The supernatant was discard, then the cells were suspended with 1×RPMI1640 culture medium and count the number. […] cells/mL was prepared and then placed on ice. 5˜10×10^6 (0.2 ml) cells were inoculated subcutaneously on the right side of the back of 6˜8 week old female Bab/c nude mice (about 20 g in weight). When the tumor average volume growed to 100˜200 mm^3, the mice were randomly divide into groups (3-6 mice per group), and marked by ear pierced tags and weighted. The test compounds and the reference compound (with a purity over 99% and individual impurity not higher than 0.2%) were formulated to emulsion suspension with CM (30% polyethylene glycol 400, 0.5% Tween-80 and 2.5% propylene glycol) respectively. Intragastric administration was continued once daily at a dosage of 25 mg/kg (0.1 ml/10 g mouse). The tumor was measured 3 times per week. When the average volume of the tumor in CM control group was up to 1500 mm^3 or after administration for 30 days, the experiment was ended.
The volume of tumor (V) was calculated as V=½*a*b^2 (a represents length of tumors, b represents width of tumors). Tumor growth inhibition (TGI) was calculated as: TGI (%)=100−(VT−VT0)/(VC−VC0)*100%; where VT0 and VT are the tumor volumes of the beginning and finish days of dosed groups; and VC0 and VC are the tumor volumes of the beginning and finish days for the control group, respectively.

[3] = system: Calu-3 (Her2 amp); experiment: Growth inhibition GI50 in vitro (CCK8/MTT, 72 h); type: cell-based; details: Homo sapiens, Calu-3; Table 16; 1000 nM to 0.03 nM serial dilution; read-out: GI50 Calu3 (HER2 amp)
Procedure: (§1) Human lung adenocarcinoma cell line Calu-3 (ATCC) was cultured with 1×MEM complete medium (10% FBS, 1% double-antibiotics, 1% NEAA (Gibco), 2 mM glutamine and 1 mM of sodium pyruvate). Human breast cancer cell line SK-BR-3 was cultured with McCOY'S5A complete medium (10% FBS). Human colon cancer cell line SNU1040 (HER2 V777M positive) (ATCC) and human bronchoalveolar adenocarcinoma cell line NCI-H1781 (expressing HER2 exon 20 G776VC mutation) (ATCC) were cultured with 1×RPMI1640 complete medium (10% FBS), respectively.
(§2) The suspension cells were collected by centrifugation. The supernatant was discard and the cell pellet was resuspended and counted. Different cell concentrations (5˜10×10^4 cells/mL) were prepared according to the growth cycle of each cell line and then seeded on a 96-well plate (Corning), 100 μL/well. The cells were incubated over night at 37° C., 5% CO2. The compounds were added to the cells on the second day with 2 wells in parallel. The final concentration of organic solvent shall not exceed 1%. The cells were continually incubated for 72 h, and then subjected to MTT assay.
(§3) The present compounds and the reference compounds were dissolved with DMSO (Sigma), respectively. […] The storage concentration of compounds was 10 mM and kept at −20° C. They were diluted by 2 times or 10 times with serial dilution before using.
(§4) Dojindo CCK8 reagent kit was used as MTT assay. […] FC meter was used as microplate reader.
(§5) Adherent cell culture medium was discard and immediately replaced with fresh prepared medium which contains 10% CCK8 reagent (100 μL/well). For the suspension cells, CCK8 was directly added to 10% of the final concentration. The cells were continually incubated for 1˜4 h. When the color of control wells turned to dark yellow, the absorption value was measured at OD450 nm. The cell growth rate was calculated according to the following formula: cell growth rate (%)=100*(T−T0)/(C−T0), T=optical density of drug treatment cell well—optical density of blank control well; T0=optical density of cell well before drug treatment—optical density of blank control well; C=optical density of cell well of solvent control group—optical density of blank control well. […] The experiment was independently repeated 1˜3 times, and subject to biological statistical analysis.

[4] = system: NCI-H1781 (HER2 exon 20 G776VC mutation); experiment: Growth inhibition GI50 in vitro (CCK8/MTT, 72 h); type: cell-based; details: Homo sapiens, NCI-H1781; Table 16; 1000 nM to 0.03 nM serial dilution; read-out: GI50 H1781 (HER2 G776VC)
Procedure: as §1
as §2, with “Adherent cells were digested with 0.25% pancreatin-EDTA (Gibco). The suspension” for “The suspension”
as §3, §4
(§6) Adherent cell culture medium was discard and immediately replaced with fresh prepared medium which contains 10% CCK8 reagent (100 μL/well). For the suspension cells, CCK8 was directly added to 10% of the final concentration. The cells were continually incubated for 1˜4 h. When the color of control wells turned to dark yellow, the absorption value was measured at OD450 nm. The cell growth rate was calculated according to the following formula: cell growth rate (%)=100*(T−T0)/(C−T0), T=optical density of drug treatment cell well—optical density of blank control well; T0=optical density of cell well before drug treatment—optical density of blank control well; C=optical density of cell well of solvent control group—optical density of blank control well. The concentration value of 50% inhibition of cell growth (GI50) was calculated. The experiment was independently repeated 1˜3 times, and subject to biological statistical analysis.
(§7) Furthermore, the present compounds (99, 136, 205, 211, 212, 213, 216, 229, 230, 231, 232, 233 and 236) were selected to carry out growth inhibition test for HER2/ERBB2 gene amplified or high expressed or mutant tumor cells. Afatinib and AZD9291 were used for references as second- and third-generation inhibitors of EGFR.
(§8) Each compound started at 1000 nM as an initial concentration and was diluted by 2 times with serial dilution to 0.03 nM. The GI50 value of each compound was calculated according to Test Example 1.3.

[5] = system: SNU1040 (HER2 V777M positive); experiment: Growth inhibition GI50 in vitro (CCK8/MTT, 72 h); type: cell-based; details: Homo sapiens; Table 16; 1000 nM to 0.03 nM serial dilution; read-out: GI50 SNU-1040 (HER2 V777M)
Procedure: as §1
as §2, with “Adherent cells were digested with 0.25% pancreatin-EDTA (Gibco). The suspension” for “The suspension”
as §3, §4, §6, §7, §8

[6] = system: H1975 (EGFR L858R/T790M); experiment: Growth inhibition GI50 in vitro (CCK8/MTT, 72 h); type: cell-based, human; details: Homo sapiens, NCI-H1975
[7] = system: PC-9 (EGFR dE746-A750); experiment: Growth inhibition GI50 in vitro (CCK8/MTT, 72 h); type: cell-based, human; details: Homo sapiens
[8] = system: SW48 (EGFR G719S positive); experiment: Growth inhibition GI50 in vitro (CCK8/MTT, 72 h); type: cell-based; details: Homo sapiens, SW48; Table 15; 1000 nM to 0.03 nM serial dilution; read-out: GI50 SW48 (EGFR G719S)
Procedure: PC-9ER is an acquired Erlotinib resistance cell line of PC-9 cells developed by the investor. […] The four cell lines above were cultured with 1×RPMI1640 complete medium (supplement with 10% FBS). Human colon cancer cell line SW48 (EGFR G719S positive, ATCC). was cultured with L15 complete medium (10% FB S).
as §2, §3, §4, §5
Each compound started at 1000 nM as an initial concentration and was diluted by […] with serial dilution to 0.03 nM.

[9] = system: A549 (EGFR WT); experiment: Growth inhibition GI50 in vitro (CCK8/MTT, 72 h); type: cell-based, human; details: Homo sapiens, A549
[10] = system: H292 (EGFR WT); experiment: Growth inhibition GI50 in vitro (CCK8/MTT, 72 h); type: cell-based; details: Homo sapiens, NCI-H292; Table 15; 1000 nM to 0.03 nM serial dilution; read-out: GI50 H292 (EGFR WT)
Excerpt: EGFR wild type cell lines: human epidermal cancer cell line A431 (EGFR WT, amplification and high expression, from Shanghai Cell Bank of Chinese Academy of Sciences and ATCC), NSCLC cell lines NCI-H460 (EGFR WT, Kras G61H and PI3KCA E545K mutants, ATCC) and NCI-H1299 (EGFR WT, ATCC), melanoma cell line A375 (EGFR WT and BRAF V600E mutant, from Shanghai Cell Bank of Chinese Academy of Sciences, ATCC), human lung cancer cell line NCI-H292 (EGFR WT, from human lung mucoepidermoid carcinoma/lymphatic metastasis, purchased from Shanghai Cell Bank of Chinese Academy of Sciences) were cultured with 1×RPMI1640 complete medium which was supplement with 10% FBS. NSCLC cell line A549 (EGFR WT and Kras G12S mutant, from Shanghai Cell Bank of Chinese Academy of Sciences) was cultured with 1×Ham'S F12K complete medium which was supplement with 10% FBS, 1% double-antibiotics and 2 mM glutamine.
as §2, §3, §4, §5

[11] = Table 16, 1000 nM to 0.03 nM serial dilution, read-out: GI50 N87 (HER2 amp)
[12] = Table 13, 72 h, read-out: Range of GI50 H1975 (EGFR L858R/T790M)
[13] = Table 15, 1000 nM to 0.03 nM serial dilution, read-out: GI50 H1975 (EGFR L858R/T790M)
[14] = Table 13, 72 h, read-out: Range of GI50 PC-9 (EGFR dE746-A750)
[15] = Table 15, 1000 nM to 0.03 nM serial dilution, read-out: GI50 PC-9 (EGFR dE746-A750)
[16] = Table 13, 72 h, read-out: Range of GI50 N87 (HER2 Amp)
[17] = Table 13, 72 h, read-out: Range of GI50 A549 (EGFR WT)
[18] = Table 15, 1000 nM to 0.03 nM serial dilution, read-out: GI50 A549 (EGFR WT)

Row | GI50 [3] [nM] | GI50 [4] [nM] | GI50 [5] [nM] | GI50 [6, 12] [nM] | GI50 [6, 13] [nM] | GI50 [7, 14] [nM] | GI50 [7, 15] [nM] | GI50 [8] [nM] | GI50 [9, 17] [nM] | GI50 [9, 18] [nM] | GI50 [10] [nM] | Compound | GI50 [1, 11] [nM] | inhibition in vivo at 25 mg/kg [2] [%] | GI50 [1, 16] [nM]
1 | 2.62 | 1.17 | 79.1 | – | – | – | – | – | – | – | – | CN(C)C/C=C/C(=O)Nc1cc2c(Nc3ccc(F)c(Cl)c3)ncnc2cc1O[C@H]1CCOC1 [Afatinib, reference compound] | 1.25 | 98.3 | –
2 | 5.6 | 1.79 | 6.75 | 10 to 100 | 19.5 | < 10 | 0.19 | 3.13 | > 1000 | > 1000 | > 1000 | C=CC(=O)Nc1cc(Nc2cc(Nc3cc(C(F)(F)F)ccc3F)ncn2)c(OC)cc1N(C)CCN(C)C [Compound 231, N-(5-(6-(2-fluoro-5-trifluoromethyl-phenylamino)-pyrimidin-4-yl-amino)-2-((2-dimethylamino-ethyl)-methyl-amino)-4-methoxyl-phenyl)-acrylamide] | 4.21 | – | < 10
3 | 1.26 | 0.95 | 10.3 | 10 to 100 | 19.1 | < 10 | 0.98 | 4.92 | > 1000 | > 1000 | > 1000 | C=CC(=O)Nc1cc(Nc2cc(Nc3cccc(C#N)c3)ncn2)c(OC)cc1N(C)CCN(C)C [Compound 229, N-(5-(6-(3-cyano-phenylamino)-pyrimidin-4-yl-amino)-2-((2-dimethylamino-ethyl)-methyl-amino)-4-methoxyl-phenyl)-acrylamide] | 1.95 | – | < 10
4 | 2.67 | 1.91 | 13.2 | 10 to 100 | 19 | < 10 | 0.37 | 5.87 | > 1000 | > 1000 | > 1000 | C=CC(=O)Nc1cc(Nc2cc(Nc3cc(F)cc(C(F)(F)F)c3)ncn2)c(OC)cc1N(C)CCN(C)C [Compound 230, N-(5-(6-(5-fluoro-3-trifluoromethyl-phenylamino)-pyrimidin-4-yl-amino)-2-((2-dimethylamino-ethyl)-methyl-amino)-4-methoxyl-phenyl)-acrylamide] | 3.9 | – | < 10
5 | 2.49 | 1.02 | 6.82 | 10 to 100 | 16.9 | < 10 | 2.43 | 4.87 | > 1000 | > 1000 | > 1000 | C=CC(=O)Nc1cc(Nc2cc(Nc3cc(OC)cc(C(F)(F)F)c3)ncn2)c(OC)cc1N(C)CCN(C)C [Compound 232, N-(5-(6-(3-methoxyl-5-trifluoromethyl-phenylamino)-pyrimidin-4-yl-amino)-2-((2-dimethylamino-ethyl)-methyl-amino)-4-methoxyl-phenyl)-acrylamide] | 1.92 | – | < 10
